In brackets after ≈: the same amount, converted by molar mass. Read-outs that look alike come from different tables or passages of the source. Where only a bound is given, the exact number is not on record here.

Holding throughout (assay type): cell-based
One assay concerns Salmonella typhimurium. As to the kind of experiment: Static tests to determine MIC and MBC. The conditions noted are these: exponential growth phase; for MIC: antibiotic alone; for MBC: first substance alone. The method, then: (§1) The experiment was carried out with several Gram-negative and Gram-positive bacterial strains with different susceptibilities isolated in the hospital environment.
(§2) Antibacterial pharmaceutical compositions according to the invention were prepared by mixing amoxicillin at different concentrations with carveol at a sub-inhibitory concentration of 0.3 g per liter of solution or excipient (equivalent to 0.3 mg/ml). The minimal concentration of amoxicillin in combination with carveol 0.3 mg/ml that produced a bactericidal effect was determined. In each case, antibiotic activity was determined either with amoxicillin alone, or with carveol alone, or with the composition of the invention.
(§3) The experiment was carried out with several resistant bacterial strains isolated in the hospital environment. The antibiotic used was ampicillin, from the beta-lactam family, which is one of the most widely used antibiotics. An antibiotic pharmaceutical composition according to the invention was prepared by mixing ampicillin at different concentrations with carveol at a sub-inhibitory concentration of 0.3 g per liter of solution or excipient. This pharmaceutical composition of the invention was named Ampi-P, for potentiated ampicillin. In each case, antibiotic activity was determined either with ampicillin alone, or with carveol alone, or with the composition of the invention.
(§4) The experiment was carried out with several resistant bacterial strains isolated in the hospital environment. The antibiotic used was cephazolin, from the cephalosporin family, another class of beta-lactams which are among the most widely used antibiotics. An antibiotic pharmaceutical composition according to the invention was prepared by mixing cephazolin at different concentrations with alpha-ionone and beta-ionone at a sub-inhibitory concentration of 0.3 g per liter of solution or excipient. This pharmaceutical composition of the invention was named Cepha-P, for potentiated cephazolin. In each case, antibiotic activity was determined either with cephazolin alone, or with alpha-ionone or beta-ionone alone, or with the composition of the invention.
as §3, with “polymyxin B,” for “ampicillin,”, “peptide” for “beta-lactam”, “oldest” for “most widely used”, “polymyxin B” for “ampicillin”, “Polymix-P,” for “Ampi-P,”, “polymyxin B.” for “ampicillin.”
as §3, with “chloramphenicol,” for “ampicillin,”, “phenicol” for “beta-lactam”, “oldest” for “most widely used”, “chloramphenicol” for “ampicillin”, “Chloram-P,” for “Ampi-P,”, “chloramphenicol.” for “ampicillin.”
(§5) The experiment was carried out with several resistant bacterial strains isolated in the hospital environment. The antibiotic used was chlortetracycline, one of the oldest antibiotics. An antibiotic pharmaceutical composition according to the invention was prepared by mixing chlortetracycline at different concentrations with carveol at a sub-inhibitory concentration of 0.3 g per liter of solution or excipient.

A further assay relates to Bacillus subtilis. As to the kind of experiment: Static tests to determine MIC and MBC. The following applies: exponential growth phase; for MIC: antibiotic alone; for MBC: first substance alone. The protocol: as §1, §2, §3, §4
as §3, with “polymyxin B,” for “ampicillin,”, “peptide” for “beta-lactam”, “oldest” for “most widely used”, “polymyxin B” for “ampicillin”, “Polymix-P,” for “Ampi-P,”, “polymyxin B.” for “ampicillin.”
as §3, with “chloramphenicol,” for “ampicillin,”, “phenicol” for “beta-lactam”, “oldest” for “most widely used”, “chloramphenicol” for “ampicillin”, “Chloram-P,” for “Ampi-P,”, “chloramphenicol.” for “ampicillin.”
as §5

A further assay relates to Escherichia coli. As to the kind of experiment: Static tests to determine MIC and MBC. The following applies: exponential growth phase; for MIC: antibiotic alone; for MBC: first substance alone. The method, then: as §1, §2, §3, §4
as §3, with “polymyxin B,” for “ampicillin,”, “peptide” for “beta-lactam”, “oldest” for “most widely used”, “polymyxin B” for “ampicillin”, “Polymix-P,” for “Ampi-P,”, “polymyxin B.” for “ampicillin.”
as §3, with “chloramphenicol,” for “ampicillin,”, “phenicol” for “beta-lactam”, “oldest” for “most widely used”, “chloramphenicol” for “ampicillin”, “Chloram-P,” for “Ampi-P,”, “chloramphenicol.” for “ampicillin.”
as §5

Assay [1] relates to Staphylococcus epidermidis. As to the kind of experiment: Static tests to determine MIC and MBC. The conditions noted are these: exponential growth phase; for MIC: antibiotic alone; for MBC: first substance alone. The protocol: as §1
Antibacterial pharmaceutical compositions according to the invention were prepared by mixing amoxicillin at different concentrations with carveol at a sub-inhibitory concentration of 0.3 g per liter of solution or excipient (equivalent to 0.3 mg/ml). The minimal concentration of amoxicillin in combination with carveol 0.3 mg/ml that produced a bactericidal effect was determined. In each case, antibiotic activity was determined either with amoxicillin alone, or with carveol alone, or with the composition of the invention. […]

The subject of a further assay is Mycobacterium fleii. As to the kind of experiment: Static tests to determine MIC and MBC. The conditions noted are these: for MIC: antibiotic alone, exponential growth phase.
The subject of assay [2] is resistant mycobacterial strains isolated in a veterinary environment. The assay is described as follows: Static MIC/MBC tests, potentiation over tested mycobacterial strains. The following applies: antibiotic combined with carvacrol or thymol at 0.3 mg/ml.
The subject of another assay is Mycobacterium fortuitum. As to the kind of experiment: Static tests to determine MIC and MBC. The following applies: Mycolicibacterium fortuitum; for MIC: antibiotic alone, exponential growth phase.
Assay [3] deals with bacterial strains isolated in the hospital environment. As to the kind of experiment: Static MIC/MBC tests, potentiation over all tested strains. The following applies: antibiotic combined with carveol, alpha-ionone or beta-ionone at 0.3 mg/ml. The protocol:
as §1, §2
The experiment was carried out with several resistant bacterial strains isolated in the hospital environment. The antibiotic used was ampicillin, from the beta-lactam family, which is one of the most widely used antibiotics. […] In each case, antibiotic activity was determined either with ampicillin alone, or with carveol alone, or with the composition of the invention.
The experiment was carried out with several resistant bacterial strains isolated in the hospital environment. […] In each case, antibiotic activity was determined either with cephazolin alone, or with alpha-ionone or beta-ionone alone, or with the composition of the invention.
The experiment was carried out with several resistant bacterial strains isolated in the hospital environment. […] This pharmaceutical composition of the invention was named Polymix-P, for potentiated polymyxin B. In each case, antibiotic activity was determined either with polymyxin B alone, or with carveol alone, or with the composition of the invention.
The experiment was carried out with several resistant bacterial strains isolated in the hospital environment. […] In each case, antibiotic activity was determined either with chloramphenicol alone, or with carveol alone, or with the composition of the invention. […]

The test system of another assay is Staphylococcus aureus. As to the kind of experiment: Static tests to determine MIC and MBC. The conditions noted are these: Staphylococcus aureus; antibiotic alone; exponential growth phase. The method, then: as §1, §2
(§6) The experiment was carried out with several resistant bacterial strains isolated in the hospital environment. The antibiotic used was chlortetracycline, one of the oldest antibiotics. An antibiotic pharmaceutical composition according to the invention was prepared by mixing chlortetracycline at different concentrations with carveol at a sub-inhibitory concentration of 0.3 g per liter of solution or excipient. […] In each case, antibiotic activity was determined either with chlortetracycline alone, or with carveol alone, or with the composition of the invention.
as §6, with “streptomycin, an important member” for “chlortetracycline, one”, “aminoside family which is among the most important” for “oldest”, “streptomycin” for “chlortetracycline”
as §6, with “erythromycin, an important member” for “chlortetracycline, one”, “macrolide family which is among the most important” for “oldest”, “erythromycin” for “chlortetracycline”

[4] abbreviates: Salmonella enterica, TYPHIMURIUM, read-out: MIC.
The mark [5] stands for this setting: Bacillus subtilis, read-out: MIC.
Where [6] appears, read: Escherichia coli, read-out: MIC.
[7] abbreviates: Staphylococcus epidermidis, read-out: MIC.

As to polymyxin B, the MIC was 25 µg/mL in the assay on Salmonella typhimurium, >50 µg/mL in the assay on Bacillus subtilis, >50 µg/mL in the assay on Escherichia coli and >50 µg/mL in [1].
Turning to `NNC(=O)c1ccncc1` [Isoniazide, isoniazide], the MIC with Mycobacterium fleii and with Mycobacterium fortuitum was > 50 µg/mL throughout. The “times lower antibiotic concentration producing bactericidal activity versus antibiotic alone” value in [2] is reported as “at least 25 times”.
With `CC1(C)S[C@@H]2[C@H](NC(=O)[C@H](N)c3ccccc3)C(=O)N2[C@H]1C(=O)O` [Ampicillin, ampicillin], the MIC (in the assay on Salmonella typhimurium (setting [4]); with Bacillus subtilis (setting [5]); with Escherichia coli (setting [6]); in [1] (setting [7])) was > 50 µg/mL throughout.
As to `Cc1nnc(SCC2=C(C(=O)O)N3C(=O)[C@@H](NC(=O)Cn4cnnn4)[C@H]3SC2)s1` [Cephazolin, cephazolin], the MIC (with Salmonella typhimurium; with Bacillus subtilis; with Escherichia coli; in assay [1]) was >50 µg/mL in each case. In assay [3], the “times lower antibiotic concentration producing bactericidal activity versus antibiotic alone” value is given as “at least ten”.
Regarding `O=C(N[C@H](CO)[C@H](O)c1ccc([N+](=O)[O-])cc1)C(Cl)Cl` [Chloramphenicol, chloramphenicol], the MIC (in the assay on Salmonella typhimurium (setting [4]); with Bacillus subtilis (setting [5]); in the assay with Escherichia coli (setting [6]); in [1] (setting [7])) was > 50 µg/mL each time.
Regarding `CC[C@H]1OC(=O)[C@H](C)[C@@H](O[C@H]2C[C@@](C)(OC)[C@@H](O)[C@H](C)O2)[C@H](C)[C@@H](O[C@@H]2O[C@H](C)C[C@H](N(C)C)[C@H]2O)[C@](C)(O)C[C@@H](C)C(=O)[C@H](C)[C@@H](O)[C@]1(C)O` [Erythromycin, erythromycin], the MIC with Salmonella typhimurium (setting [4]), in the assay on Bacillus subtilis (setting [5]), in the assay on Escherichia coli (setting [6]) and with Staphylococcus aureus was > 50 µg/mL in each case. For the same compound, the “times lower antibiotic concentration producing bactericidal activity versus antibiotic alone” value in [3] is “two to five”.
For `CO[C@H]1/C=C/O[C@@]2(C)Oc3c(C)c(O)c4c(O)c(c(/C=N/N5CCN(C)CC5)c(O)c4c3C2=O)NC(=O)/C(C)=C\C=C\[C@H](C)[C@H](O)[C@@H](C)[C@@H](O)[C@@H](C)[C@H](OC(C)=O)[C@@H]1C` [Rifampicin, rifampicin], the MIC with Mycobacterium fleii and with Mycobacterium fortuitum was > 75 µg/mL in each case. In addition, in assay [2], the “times lower antibiotic concentration producing bactericidal activity versus antibiotic alone” value is on record as “at least 25 times”.
In the case of `Cc1ccc(C(C)C)cc1O` [Carvacrol, carvacrol], the MBC against Mycobacterium fleii and with Mycobacterium fortuitum was 1000 µg/mL (≈ 6.66 mM) throughout.
For the compound `CN(C)[C@@H]1C(O)=C(C(N)=O)C(=O)[C@@]2(O)C(O)=C3C(=O)c4c(O)ccc(Cl)c4[C@@](C)(O)[C@H]3C[C@@H]12` [Chlortetracycline, chlortetracycline], the MIC in the assay on Salmonella typhimurium (setting [4]), in the assay on Bacillus subtilis (setting [5]), in the assay with Escherichia coli (setting [6]) and with Staphylococcus aureus was > 50 µg/mL each time.
For the compound `[H]/N=C(/N)N[C@H]1[C@H](O)[C@@H](O)[C@H](O[C@@H]2O[C@@H](C)[C@](O)(C=O)[C@H]2O[C@@H]2O[C@@H](CO)[C@H](O)[C@@H](O)[C@@H]2NC)[C@@H](N/C(N)=N\[H])[C@@H]1O` [Streptomycin, streptomycin], the MIC in the assay with Salmonella typhimurium (setting [4]), in the assay on Bacillus subtilis (setting [5]), with Escherichia coli (setting [6]) and in the assay with Staphylococcus aureus was > 50 µg/mL each time. In [3], the “times lower antibiotic concentration producing bactericidal activity versus antibiotic alone” value is listed as “at least 10 times”.
Turning to `CC(=O)/C=C/C1=C(C)CCCC1(C)C` [Beta-ionone, beta-ionone], the MBC (in the assay with Salmonella typhimurium; with Bacillus subtilis; with Escherichia coli; in assay [1]) was 2000 µg/mL each time.
With `CC(=O)/C=C/C1C(C)=CCCC1(C)C` (stereo not drawn) [Alpha-ionone, alpha-ionone], the MBC (in the assay on Salmonella typhimurium; in the assay on Bacillus subtilis; with Escherichia coli; in assay [1]) was 2000 µg/mL in each case.

In general, MIC refers to the lowest concentration that inhibits growth of the organism. The MBC is the lowest tested concentration that kills the bacteria rather than only halting them.
